In patent US5292884A, “Cyclic hydroxamic acids” (Biomide Investment Limited Partnership, priority 1992, dated 1994):

Target: T1, 12-lipoxygenase (Sus scrofa, UniProt P16469)
T1 construct: porcine Leukocyte cytosol in buffer; from tissue; host or cells: porcine leukocyte cytosol
T1 sequence (P16469 1-663): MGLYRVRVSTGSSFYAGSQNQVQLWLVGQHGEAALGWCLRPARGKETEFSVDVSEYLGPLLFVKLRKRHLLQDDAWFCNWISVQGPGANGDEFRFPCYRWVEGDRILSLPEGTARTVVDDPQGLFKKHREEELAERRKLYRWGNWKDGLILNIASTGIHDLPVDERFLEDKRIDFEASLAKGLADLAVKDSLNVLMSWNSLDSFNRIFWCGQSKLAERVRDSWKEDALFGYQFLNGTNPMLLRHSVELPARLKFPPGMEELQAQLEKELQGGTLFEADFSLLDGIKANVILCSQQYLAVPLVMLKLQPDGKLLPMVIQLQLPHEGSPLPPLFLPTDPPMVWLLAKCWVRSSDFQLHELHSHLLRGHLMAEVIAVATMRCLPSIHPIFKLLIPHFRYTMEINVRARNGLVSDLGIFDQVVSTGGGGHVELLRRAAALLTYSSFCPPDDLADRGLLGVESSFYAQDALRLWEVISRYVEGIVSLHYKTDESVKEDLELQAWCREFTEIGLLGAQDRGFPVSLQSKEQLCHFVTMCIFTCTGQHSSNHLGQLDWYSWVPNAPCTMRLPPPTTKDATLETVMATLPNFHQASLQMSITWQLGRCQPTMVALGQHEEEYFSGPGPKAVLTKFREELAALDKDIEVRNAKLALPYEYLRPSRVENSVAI
Test: 12-lipoxygenase inhibition in porcine leukocyte cytosol ([1-14C] arachidonic acid conversion to 12-HETE, TLC)
Format: biochemical
Conditions: porcine leukocyte cytosol 0.075 mg/mL, pH 8.0, 5 min preincubation, 5 μM arachidonic acid, 15 min at 37° C.
Procedure: The standard assay procedure is as follows:
Compounds of the present invention were added in 3 μL of DMSO at an appropriate concentration to porcine Leukocyte cytosol in buffer (final protein concentration of 0.075 mg/mL in 0.1M HEPES, 2 mM caCl2, 1 mM MgCl2, pH=8.0) and preincubated for 5 min at 37° C. [1-^14 C] arachidonic acid was added (final concentration of 5 μM) and the reactions were incubated for 15 min at 37° C. and terminated by the addition of HCl. Total reaction volume was 100 μL. Assays also included reduced glutathione in the assay at 25 μM or following the assay at 1 mM and/or cold carrier 12-HETE and arachidonic acid added at the end of the incubation at concentrations of 5 and 100 μM, respectively. Sample was extracted with water-saturated ethyl acetate and the extracts were spotted onto TLC plates. The plates were developed with dichloromethane/ethyl acetate/acetic acid in a ratio of 70:30:1. Under these conditions, the Rf's of 12-HETE and arachidonic acid are 0.30 and 0.45 , respectively. The percentage conversion to 12-HETE was calculated from the percentage of the total ^14 C on the TLC plate that coelutes with a standard of 12-HETE.

| Structure (SMILES) | IC50 [nM] |
| --- | --- |
| CCCCCCCCCCCC[C@H]1[C@H](c2ccccc2)CCC(=O)N1O (relative stereo) [1(z), trans-6-Dodecyl-1-hydroxy-5-phenyl-piperidin-2-one] | 800 |
| CCCCCCCC[C@@H]1C[C@H](c2ccccc2)CC(=O)N1O (relative stereo) [Compound 1, cis-1-hydroxy-6-octyl-4-phenylpiperidin-2-one] | 420 |
| CCCCCCCCCCCCC1CCC(c2ccccc2)N(O)C1=O (single isomer, unassigned) [1(ii), 3-Dodecyl-1-hydroxy-6-phenyl-piperidin-2-one] | 2000 |
| O=C1CC(CCCc2ccccc2)C(c2ccccc2)CN1O (single isomer, unassigned) [1(uu), 1-Hydroxy-5-phenyl-4-(3-phenylpropyl)-piperidin-2-one] | 1700 |
| O=C1C(CCCc2ccccc2)CC(c2ccccc2)CN1O (stereo not shown) [1(aaa), 1-Hydroxy-5-phenyl-3-(3-phenylpropyl)-piperidin-2-one] | 750 |
| O=C1C(Cc2cccc3ccccc23)C(c2ccccc2)CCN1O (stereo not shown) [1(ee), 1-Hydroxy-3-(1-naphthyl-methyl)-4-phenyl-piperidin-2-one] | 1000 |
| O=C1CCC(CCCc2ccccc2)C(CCCc2ccccc2)N1O (stereo not shown) [1(fff), 1-Hydroxy-5,6-bis(3-phenyl-propyl)-piperidin-2-one] | 250 |
| O=C1C(CCCc2ccccc2)C(c2ccccc2)CCN1O (stereo not shown) [1(hh), 1-Hydroxy-4-phenyl-3-(3-phenylpropyl)-piperidin-2-one] | 1050 |
| O=C1CC(CCc2ccccc2)C(c2ccccc2)CN1O (stereo not shown) [1(qq), 1-Hydroxy-5-phenyl-4-(2-phenylethyl)-piperidin-2-one] | 1000 |
| O=C1CC(CCc2ccccc2)C(Cc2ccccc2)CN1O (stereo not shown) [1(rr), 5-Benzyl-1-hydroxy-4-(2-phenylethyl)-piperidin-2-one] | 1600 |
| O=C1C(c2ccccc2)C(CCCc2ccccc2)CCN1O (stereo not shown) [1(vv), 1-Hydroxy-3-phenyl-4-(3-phenylpropyl)-piperidin-2-one] | 1000 |
| O=C1C(c2ccccc2)CC(CCCc2ccccc2)CN1O (stereo not shown) [1(yy), 1-Hydroxy-3-phenyl-5-(3-phenylpropyl)-piperidin-2-one] | 520 |
| O=C1CC(c2ccccc2)C(CCCc2ccccc2)CN1O (stereo not shown) [1(zz), 1-Hydroxy-4-phenyl-5-(3-phenylpropyl)-piperidin-2-one] | 1600 |
